Results as given in patent US11766496B2, “Antimicrobial fabric freshening compositions containing octenidine dihydrochloride” (The Procter & Gamble Company, priority 2019, dated 2023).
Converted amounts (≈) assume the structure as drawn.

What was measured:
Type in all cases: cell-based
[1] = system: Escherichia coli (E. coli—ATCC #8739); test: Minimum Biocidal Concentration (MBC) in suspension
Method: (§1) The antimicrobial efficacy of the antimicrobial agent in the composition is determined by measuring its Minimum Biocidal Concentration (MBC). The MBC is defined as the lowest absolute concentration of the particular antimicrobial active which provides complete kill (zero bacterial growth). The MBC of the compositions herein was determined against the bacterium, Staphylococcus aureus (S. aureus—ATCC #6538), a gram positive bacterium, and against Escherichia coli (E. coli—ATCC #8739), a gram negative bacterium. These microorganisms are representative of natural contaminants in many consumer and industrial applications. The bacteria inoculum was prepared by transferring several colonies from a Tryptone Soy Agar (TSA) plate to a saline solution (0.85% NaCl), the bacteria concentration in this saline solution was determined by measuring the % Transmittance at 425 nm and adjusted by either adding more bacteria or more saline solution until the % Transmittance at 425 nm was between 23-25% for S. aureus, and between 30-32% for E. coli, this % transmittance corresponds to a bacteria concentration of 10^8 CFU/ml. […] Each subsequent well (rows B to G) were dosed with 100 μL of the same fabric refresher composition, without the addition of the antimicrobial agent. 100 μL of the fabric refresher composition comprising the antimicrobial active was transferred from row A to row B and mixed. 100 μL of the composition was then transferred from row B to row C and mixed, and the process repeated to row G. As such, the concentration of the antimicrobial agent underwent two-fold dilution in adjacent wells, while the concentration of the other actives in the fabric refresher composition remained constant across all the wells in the same column. 10 μL of the 10^8 CFU/ml bacteria suspension in saline was added to wells A to F of the microtiter plate with row G kept as a nil bacteria control. The final volume in each well was 110 μL, except for row G which comprised 100 μL of the fabric refresher composition and no bacteria suspension. […] The plate was incubated at 32.5° C. for 48 h. MBC concentration is taken as the lowest concentration of the antimicrobial active at which no visible colony growth is observed on the TSA plate. The antibacterial efficacy of the bispyridinium alkane octenidine hydrochloride was compared to that of quaternary ammonium and alkylamine antimicrobial compounds in two fabric freshening compositions.

[2] = system: Staphylococcus aureus (S. aureus—ATCC #6538); test: Minimum Biocidal Concentration (MBC) in suspension
Method: as §1

[3] = system: Staphylococcus aureus (S. aureus—ATCC #6538); test: Antibacterial efficacy on fabrics (cotton carriers); details: cotton fabric carriers; 0.05% antimicrobial active; 10 mins contact time; 5% horse serum soil load
Method: The bactericidal efficacy on fabric surfaces of fabric refresher compositions comprising different antimicrobial agents was determined against the bacterium, Staphylococcus aureus (S. aureus—ATCC #6538). The bacteria inoculum was prepared by transferring several colonies from a Tryptone Soy Agar (TSA) plate to a saline solution (0.85% NaCl) comprising 5% horse serum as additional soil load, the bacteria concentration in this saline solution was determined by measuring the % Transmittance at 425 nm and adjusted by either adding more bacteria or more saline solution until the % Transmittance at 425 nm is between 23-25% which corresponds to a bacteria concentration of 10^8 CFU/ml.
Fabric carriers, 1 cm×1 cm disks of cotton sterilized by autoclaving, were inoculated with 50 μL of the 10^8 CFU/ml bacteria inoculum and incubated for 30 mins at 32° C. After this incubation period, fabric carriers were treated with 2.5 ml of different fabric refresher compositions comprising no antimicrobial active (reference), or 0.05% of either bispyridinium alkane (octenidine dihydrochloride) or N-(3-aminopropyl)-N-dodecylpropane-1,3-diamine (Lonzabac 12.30) as antimicrobial actives. […] 100 μL of each of the serial dilutions were plated on a TSA plate, plates were incubated at 32° C. for 48 hours, after this incubation time, the number of colonies in each plate was counted. […]

[4] = in fabric freshening Composition 1, 20 minutes contact time
[5] = in fabric freshening Composition 2, 20 minutes contact time

Molecule | MBC (ppm) against E. coli [1, 4] [ppm] | MBC (ppm) against E. coli [1, 5] [ppm] | MBC (ppm) against S. aureus [2, 4] [ppm] | MBC (ppm) against S. aureus [2, 5] [ppm] | Number of bacteria extracted from treated fabrics [3] | MBC ([1]; Escherichia coli, ATCC8739, 20 min, in fabric freshening Composition 1, 20 minutes contact time, read-out: MBC (ppm) against E. coli) [µg/mL] | MBC ([2]; Staphylococcus aureus, ATCC6538, 20 min, in fabric freshening Composition 1, 20 minutes contact time, read-out: MBC (ppm) against S. aureus) [µg/mL]
CCCCCCCCN=c1ccn(CCCCCCCCCCn2ccc(=NCCCCCCCC)cc2)cc1.Cl.Cl [Bispyridinium alkane (6), octenidine dihydrochloride] | 500 | 250 | 125 | 47 | no viable bacteria were recovered | – | –
CCCCCCCCCCCCN(CCCN)CCCN [N-(3-aminopropyl)-N-dodecylpropane-1,3-diamine] | – | 3000 | – | 3000 | about 10^4 CFU/ml | 3000 (≈ 10 mM) | 3000 (≈ 10 mM)
N-alkyl dimethyl benzyl ammonium chloride [N-alkyl dimethyl benzyl ammonium chloride (9)] | 3000 | – | 375 | – | – | – | –
N-alkyl dimethyl benzyl ammonium chloride [N-alkyl dimethyl benzyl ammonium chloride (10)] | 1500 | – | 562.5 | – | – | – | –
